4 compounds from patent US6682892B2, “Method for treating herpes viruses” (priority 2000, dated 2004) can be followed below.

Common to all, as to assay type: cell-based
One test relates to HSV-2 35D. Briefly: Plaque reduction assay, HSV-2 35D. The following applies: Table 1, plaque reduction, Vero cells. The method, then:
(§1) Antiviral activity of compounds against herpesviruses such as HSV-1, HSV-2, or HCMV can be measured using plaque reduction assays. 0.1 ml of media containing approximately 50 PFU of virus is added to each well of a 24-well cell culture dish containing a confluent monolayer of cells (Vero cells for HSV-1 and HSV-2, HFF cells for HCMV). Compounds are dissolved in 100% DMSO and diluted in 100% DMSO as 200× stocks of the desired final drug concentration. Typically 5-6 two-fold dilutions are prepared for each compound. Dilutions of compounds are then added to media containing 0.8% CMC resulting in a final 1× drug concentration. After the virus-infected cells have incubated for 1 h at 37° C., the virus innoculum is removed and 1 ml of media containing 0.8% CMC and the various concentrations of compound is added to each well of the dish. The dish is incubated at 37° C. for approximately 2-3 days (HSV-1 and HSV-2) or 6-9 days (HCMV) to allow sufficient growth of virus to form plaques in the cell monolayer. Plaques can be observed and counted microscopically or by staining the cells with 0.1% crystal violet in 20% ethanol. […] Antiviral activity of a compound is expressed as the concentration of compound predicted to reduce the number of plaques in a well by 50% (IC50). The IC50 values are calculated by plotting the per cent inhibition vs. concentration of compound using EXCEL software for linear regression.
(§2) A panel of viruses consisting of four strains of HSV-1 (KOS, F, DJL, Patton) and three strains of HSV-2 (MS, 35D, 186) are tested in a plaque reduction assay against four different 4-oxo-DHQ compounds (#1, 2, 4, 5 as shown in FIG. 1), and one 4-oxo-DHTP compound (#3 as shown in FIG. 1) and against Acyclovir. The six drugs inhibited replication of the seven virus strains with IC50 values ranging from 2-10 μM (Table 1). In order to select for 4-oxo-DHQ resistant mutants, HSV-1 strains KOS, F, and DJL along with HSV-2 strains 186 and MS are serially passaged in the presence of 20 uM compound 1. Following the seventh passage, 4-oxo-DHQ resistant virus from each strain are plaque purified three times and high-titer stocks are made.

Another test deals with HSV-2 186. The experiment in a line: Plaque reduction assay, HSV-2 186. As to conditions: Table 1, plaque reduction, Vero cells. How it is done:
as §1, §2

Another test has as its system HCMV AD169. The experiment in a line: Plaque reduction assay, HCMV AD169. The following applies: Table 5, wild type strain; read-out: Plaque Reduction Assay - IC50 (μM) HCMV AD169. How it is done:
as §1

A further test has as its system HSV-1 DJL. The experiment in a line: Plaque reduction assay, HSV-1 DJL. As to conditions: Table 1, plaque reduction, Vero cells. How it is done: as §1, §2
A further test has as its system HSV-1 KOS-M1 (V823A). The experiment in a line: Plaque reduction assay, 4-oxo-DHQ resistant HSV-1 KOS-M1. How it is done: as §1
(§3) Vero cells are plated out at a density of 3.5×10^5 cells per well in a six well tissue culture plate. Cells are infected with HSV-1 KOS at a multiplicity of infection (moi) of 0.1 pfu/cell and 1 h post infection the cells are overlayed with 3 ml media containing 20 uM of a 4-oxo-DHQ. Cultures are incubated for 20 h at 37° C., freeze/thawed to release cell-associated virus, and 0.1 ml of culture is used to infect a new monolayer of Vero cells (one passage). Serial passage is repeated seven times in the presence of 20 uM drug. Virus isolates are then plaque purified three times prior to preparation of stocks. 4-oxo-DHQ resistant HSV-1 and HSV-2 may also be selected by the marker transfer method described below using wild-type HSV DNA and the corresponding mutant HSV polymerase gene.
as §2

Test [1] deals with HCMV AD169-M1 (V823A, V824L). Briefly: Plaque reduction assay, 4-oxo-DHQ resistant HCMV AD169-M1. As to conditions: Table 5, mutant selected for 4-oxo-DHQ resistance; read-out: Plaque Reduction Assay - IC50 (μM) HCMV AD169-M1. How it is done:
as §1
A plasmid containing the wild-type HCMV polymerase gene is modified to contain the V823A or V823A and V824L mutations using a site-directed mutagenesis Kit (Stratagene Corp.) and following the manufactures's protocol. HFF cells are plated into T25 tissue culture flasks to achieve 80% confluency at the time of the transfection. Wild type HCMV AD 169 DNA and plasmid DNA containing the mutant HCMV polymerase gene are mixed at a ratio of 1:2 (2 ug of viral DNA to 4 ug of plasmid DNA). DNA's are transfected using superfect transfection reagent according to methods recommended by the manufacturer (Quiagen Inc.). Cells are harvested five days posttransfection, freeze-thawed to release virus and half of the sample is used to infect HFF cell monolayers. Cells are overlayed with media containing 20 uM 4-oxo-DHQ compound 2 (see FIG. 1). Serial passage is repeated seven times in the presence of 20 uM compound 2 and virus isolates are then plaque purified three times prior to preparation of viral stock.
In order to isolate an HCMV resistant mutant marker rescue experiments are done. Plasmids containing the mutant polymerase genes are transfected into HFF cells along with wild type HCMV AD169 DNA. The resulting virus is then serially passaged in the presence of 20 uM compound 1 (see FIG. 1). A 4-oxo-DHQ resistant virus is isolated from marker rescue studies done with the HCMV polymerase gene containing mutations that result in the V823A, V824L amino acid changes, but not with the gene containing V823A change alone.

For another test, the system named is HSV-1 F. Briefly: Plaque reduction assay, HSV-1 F. As to conditions: Table 1, plaque reduction, Vero cells. The method, then: as §1, §2
The next test concerns HSV-1 KOS. Briefly: Plaque reduction assay, HSV-1 KOS. The method, then:
as §1, §2

In a further test the test system is HSV-2 MS-M1 (V826A). Briefly: Plaque reduction assay, 4-oxo-DHQ resistant HSV-2 MS-M1. The method, then: as §1, §3, §2
A further test has as its system HSV-2 MS. Briefly: Plaque reduction assay, HSV-2 MS. The method, then:
as §1, §2

The next test has as its system HSV-1 Patton. Briefly: Plaque reduction assay, HSV-1 Patton. As to conditions: Table 1, plaque reduction, Vero cells. The method, then: as §1, §2
Where [2] appears, read: Table 5, mutant selected for 4-oxo-DHQ resistance, read-out: Plaque Reduction Assay - IC50 (μM) HSV-1 KOS-M1.
The mark [3] stands for this setting: Table 1, plaque reduction, Vero cells, read-out: IC50 (uM), HSV-1 KOS.
The mark [4] stands for this setting: Table 5, wild type strain, read-out: Plaque Reduction Assay - IC50 (μM) HSV-1 KOS.
Where [5] appears, read: Table 5, mutant selected for 4-oxo-DHQ resistance, read-out: Plaque Reduction Assay - IC50 (μM) HSV-2 MS-M1.
Setting [6] is: Table 1, plaque reduction, Vero cells, read-out: IC50 (uM), HSV-2 MS.
Where [7] appears, read: Table 5, wild type strain, read-out: Plaque Reduction Assay - IC50 (μM) HSV-2 MS.

Molecules are shown by their SMILES. Read-outs that look alike come from different tables or passages of the source. Some results are limits rather than exact numbers.

Consider `Cn1cc(C(=O)NCc2ccc(Cl)cc2)c(=O)c2cc(CN3CCOCC3)ccc21` [Compound 2], for which the IC50 is 5.4 µM in the test with HSV-2 35D; 2.3 µM in the test on HSV-2 186; 0.4 µM in the test on HCMV AD169; 2.6 µM with HSV-1 DJL; above 50 µM in the test with HSV-1 KOS-M1 (V823A) (setting [2]); 4 µM in test [1]. Further, the IC50 in the test with HSV-1 F is 2.3 µM; in the test on HSV-1 KOS (setting [3]), 3.8 µM; in the test on HSV-1 KOS (setting [4]), 3.3 µM; in the test with HSV-2 MS-M1 (V826A) (setting [5]), above 50 µM; in the test with HSV-2 MS (setting [6]), 2.5 µM; in the test with HSV-2 MS (setting [7]) it was 1.3 µM. In the test on HSV-1 Patton, this compound displayed an IC50 of 5.3 µM.

Turning to `Cn1cc(C(=O)NCc2ccc(Cl)cc2)c(=O)c2cc(CN3CCOCC3)sc21` [Compound 3], the IC50 is 5 µM in the test on HSV-2 35D; 3.2 µM in the test with HSV-2 186; 1.5 µM with HCMV AD169; 1.8 µM in the test with HSV-1 DJL; above 50 µM in the test on HSV-1 KOS-M1 (V823A) (setting [2]); 6.2 µM in [1]. Further, the IC50 is 2.2 µM in the test with HSV-1 F; 3.2 µM with HSV-1 KOS (setting [3]); 4 µM in the test with HSV-1 KOS (setting [4]); above 50 µM in the test on HSV-2 MS-M1 (V826A) (setting [5]); 2.8 µM in the test with HSV-2 MS (setting [6]); 0.8 µM with HSV-2 MS (setting [7]). The same compound showed an IC50 with HSV-1 Patton of 7.7 µM.

As to `Nc1nc2c(ncn2COCCO)c(=O)[nH]1` [ACV, Acyclovir, reference compound], the IC50 with HSV-2 35D (Human alphaherpesvirus 2) was 6 µM; with HSV-2 186 (Human alphaherpesvirus 2), above 10 µM; in the test with HSV-1 DJL (Human alphaherpesvirus 1), 1.8 µM; in the test on HSV-1 KOS-M1 (V823A) (Human alphaherpesvirus 1, read-out: Plaque Reduction Assay - IC50 (μM) HSV-1 KOS-M1) it was 4.4 µM; with HSV-1 F (Human alphaherpesvirus 1), 1.3 µM; with HSV-1 KOS (Human alphaherpesvirus 1, Table 1, plaque reduction, Vero cells, read-out: IC50 (uM), HSV-1 KOS), 3.6 µM. The IC50 was 3.9 µM in the test with HSV-1 KOS (Human alphaherpesvirus 1, Table 5, wild type strain, read-out: Plaque Reduction Assay - IC50 (μM) HSV-1 KOS); 2.8 µM with HSV-2 MS-M1 (V826A) (Human alphaherpesvirus 2, read-out: Plaque Reduction Assay - IC50 (μM) HSV-2 MS-M1); 10 µM in the test with HSV-2 MS (Human alphaherpesvirus 2, Table 1, plaque reduction, Vero cells, read-out: IC50 (uM), HSV-2 MS); 2.4 µM in the test with HSV-2 MS (Human alphaherpesvirus 2, Table 5, wild type strain, read-out: Plaque Reduction Assay - IC50 (μM) HSV-2 MS); 9.3 µM with HSV-1 Patton (Human alphaherpesvirus 1).

For the compound `O=C(NCc1ccc(Cl)cc1)c1cn2c3c(cc(CN4CCOCC4)cc3c1=O)OCC2` [Compound 4], the IC50 is 3.2 µM with HSV-2 35D; 2.3 µM in the test with HSV-2 186; 0.6 µM in the test with HCMV AD169; 2.2 µM in the test on HSV-1 DJL; above 50 µM in the test on HSV-1 KOS-M1 (V823A) (setting [2]); 2.1 µM in the test on HSV-1 F. In addition, the IC50 turned out to be 3.2 µM with HSV-1 KOS (setting [3]); 4.2 µM in the test on HSV-1 KOS (setting [4]); 28.4 µM in the test with HSV-2 MS-M1 (V826A) (setting [5]); 2.5 µM in the test with HSV-2 MS (setting [6]); 2.1 µM with HSV-2 MS (setting [7]); 4.3 µM in the test with HSV-1 Patton.
